# Assay results reported in patent US20100070184A1, “METHOD FOR D[…] HIV TO PROTEASE INHIBITOR TREATMENT” (MONOGRAM BIOSCIENCES, INC., priority 2006, published 2010).
# System: HIV-1 from the patient plasma sample
# Assay: PHENOSENSE HIV phenotypic assay, tipranavir IC50 fold change vs NL4-3 reference strain
# Format: cell-based
# Details: for MEAN tipranavir FC / MEDIAN tipranavir FC: 1411 patient samples
# Experimental: In one embodiment, the phenotypic analysis is performed using PHENOSENSE™ (ViroLogic Inc., South San Francisco, Calif.). See Petropoulos et al., 2000, Antimicrob. Agents Chemother. 44:920-928; U.S. Pat. Nos. 5,837,464 and 6,242,187. PHENOSENSE™ is a phenotypic assay that achieves the benefits of phenotypic testing and overcomes the drawbacks of previous assays. Because the assay has been automated, PHENOSENSE™ offers higher throughput under controlled conditions. The result is an assay that accurately defines the susceptibility profile of a patient's HIV isolates to all currently available antiretroviral drugs, and delivers results directly to the physician within about 10 to about 15 days of sample receipt. PHENOSENSE™ is accurate and can obtain results with only one round of viral replication, thereby avoiding selection of subpopulations of virus. The results are quantitative, measuring varying degrees of drug susceptibility, and sensitive—the test can be performed on blood specimens with a viral load of about 500 copies/mL and can detect minority populations of some drug-resistant virus at concentrations of 10% or less of total viral population. Furthermore, the results are reproducible and can vary by less than about 1.4-2.5 fold, depending on the drug, in about 95% of the assays performed.
# A resistance test vector (“RTV”) can then be constructed by incorporating the amplified viral gene sequences into a replication defective viral vector by using any method known in the art of incorporating gene sequences into a vector. In one embodiment, restrictions enzymes and conventional cloning methods are used. See Maniatis et al., 1989, Molecular Cloning: A Laboratory Manual, Cold Spring Harbor Laboratory, NY and Ausubel et al., 1989, Current Protocols in Molecular Biology, Greene Publishing Associates and Wiley Interscience, NY. In some embodiments, ApaI and PinAI restriction enzymes are used. Preferably, the replication defective viral vector is the indicator gene viral vector (“IGVV”). In some embodiments, the viral vector contains a means for detecting replication of the RTV. Preferably, the viral vector contains a luciferase expression cassette.
# The assay can be performed by first co-transfecting host cells with RTV DNA and a plasmid that expresses the envelope proteins of another retrovirus, for example, amphotropic murine leukemia virus (MLV). Following transfection, virus particles can be harvested and used to infect fresh target cells. The completion of a single round of viral replication can be detected by the means for detecting replication contained in the vector. In one embodiment, the completion of a single round of viral replication results in the production of luciferase. Serial concentrations of anti-viral agents can be added at either the transfection step or the infection step.
# Susceptibility to the anti-viral agent can be measured by comparing the replication of the vector in the presence and absence of the anti-viral agent. For example, susceptibility to the anti-viral agent can be measured by comparing the luciferase activity in the presence and absence of the anti-viral agent. Susceptible viruses would produce low levels of luciferase activity in the presence of anti-viral agents, whereas viruses with reduced susceptibility would produce higher levels of luciferase activity.
# The phenotypic assay was conducted using the PHENOSENSE™ (Monogram Biosciences, Inc, South San Francisco, Calif.) HIV assay (Petropoulos et al., 2000, Antimicrob. Agents Chemother. 44:920-928; U.S. Pat. Nos. 5,837,464 and 6,242,187, and International Patent Application No. PCT/US06/05512). Plasma samples were collected from HIV-1-infected patients. IC50 values for tipranavir were obtained for the HIV-1 from the patient sample. This was compared to the IC50 for tipranavir against the NL4-3 (GenBank Accession No. AF324493) reference viral strain. […]
# [1] = Kohlbrenner TPV mutation score 0
# [2] = Kohlbrenner TPV mutation score 0, 4492 samples
# [3] = Kohlbrenner TPV mutation score 1
# [4] = Kohlbrenner TPV mutation score 1, 4492 samples
# [5] = Kohlbrenner TPV mutation score 2
# [6] = Kohlbrenner TPV mutation score 2, 4492 samples
# [7] = Kohlbrenner TPV mutation score 3
# [8] = Kohlbrenner TPV mutation score 3, 4492 samples
# [9] = Kohlbrenner TPV mutation score 4
# [10] = Kohlbrenner TPV mutation score 4, 4492 samples
# [11] = Kohlbrenner TPV mutation score 5
# [12] = Kohlbrenner TPV mutation score 5, 4492 samples
# [13] = Kohlbrenner TPV mutation score 6
# [14] = Kohlbrenner TPV mutation score 6, 4492 samples
# [15] = Kohlbrenner TPV mutation score 7
# [16] = Kohlbrenner TPV mutation score 7, 4492 samples
# [17] = Kohlbrenner TPV mutation score 8-9
# [18] = Kohlbrenner TPV mutation score 8, 4492 samples
# [19] = Kohlbrenner TPV mutation score 9, 4492 samples
# [20] = adjusted mutation score 3, training data with gag (n = 1916)
# [21] = adjusted mutation score 3, validation data with gag (n = 1916)
# [22] = adjusted mutation score 3.5, training data with gag (n = 1916)
# [23] = adjusted mutation score 3.5, validation data with gag (n = 1916)
# [24] = adjusted mutation score 4, training data with gag (n = 1916)
# [25] = adjusted mutation score 4, validation data with gag (n = 1916)
# [26] = adjusted mutation score 4.5, training data with gag (n = 1916)
# [27] = adjusted mutation score 4.5, validation data with gag (n = 1916)
# [28] = adjusted mutation score 5, training data with gag (n = 1916)
# [29] = adjusted mutation score 5, validation data with gag (n = 1916)
# [30] = adjusted mutation score 5.5, training data with gag (n = 1916)
# [31] = adjusted mutation score 5.5, validation data with gag (n = 1916)
# [32] = adjusted mutation score 6, training data with gag (n = 1916)
# [33] = adjusted mutation score 6, validation data with gag (n = 1916)
# [34] = adjusted mutation score 6.5, training data with gag (n = 1916)
# [35] = adjusted mutation score 6.5, validation data with gag (n = 1916)
# [36] = adjusted mutation score <3, training data with gag (n = 1916)
# [37] = adjusted mutation score <3, validation data with gag (n = 1916)
# [38] = adjusted mutation score >=7, training data with gag (n = 1916)
# [39] = adjusted mutation score >=7, validation data with gag (n = 1916)
# [40] = base mutation score 0, validation data (n = 2246)
# [41] = base mutation score 1, validation data (n = 2246)
# [42] = base mutation score 2, validation data (n = 2246)
# [43] = base mutation score 3, validation data (n = 2246)
# [44] = base mutation score 4, validation data (n = 2246)
# [45] = base mutation score 5, validation data (n = 2246)
# [46] = base mutation score 6, validation data (n = 2246)
# [47] = base mutation score 7, validation data (n = 2246)
# [48] = base mutation score 8, validation data (n = 2246)
# [49] = base mutation score 9, validation data (n = 2246)
# [50] = samples with 3 TPV mutations (Kohlbrenner score), 4492 samples
compound,measurement,setting,value
"CCC[C@@]1(CCc2ccccc2)CC(O)=C([C@H](CC)c2cccc(NS(=O)(=O)c3ccc(C(F)(F)F)cn3)c2)C(=O)O1 [TPV, tipranavir]",MEAN tipranavir FC,[1],0.8
same,MEDIAN tipranavir FC,[1],0.7
same,Mean FC,[2],0.8
same,Median FC,[2],0.7
same,MEAN tipranavir FC,[3],1.0
same,MEDIAN tipranavir FC,[3],0.8
same,Mean FC,[4],1.1
same,Median FC,[4],0.9
same,MEAN tipranavir FC,[5],1.5
same,MEDIAN tipranavir FC,[5],1.1
same,Mean FC,[6],1.6
same,Median FC,[6],1.1
same,MEAN tipranavir FC,[7],3.1
same,MEDIAN tipranavir FC,[7],1.6
same,Mean FC,[8],3.1
same,Median FC,[8],1.7
same,MEAN tipranavir FC,[9],6.1
same,MEDIAN tipranavir FC,[9],3.0
same,Mean FC,[10],5.8
same,Median FC,[10],2.9
same,MEAN tipranavir FC,[11],11
same,MEDIAN tipranavir FC,[11],5.7
same,Mean FC,[12],10
same,Median FC,[12],5.5
same,MEAN tipranavir FC,[13],16
same,MEDIAN tipranavir FC,[13],8.8
same,Mean FC,[14],17
same,Median FC,[14],10.7
same,MEAN tipranavir FC,[15],32
same,MEDIAN tipranavir FC,[15],12
same,Mean FC,[16],24
same,Median FC,[16],16
same,MEAN tipranavir FC,[17],44
same,MEDIAN tipranavir FC,[17],24
same,Mean FC,[18],30
same,Median FC,[18],31
same,Mean FC,[19],42
same,Median FC,[19],53
same,mean TPV FC,[20],2.3
same,median TPV FC,[20],1.5
same,mean TPV FC,[21],1.8
same,median TPV FC,[21],1.4
same,mean TPV FC,[22],3.2
same,median TPV FC,[22],1.5
same,mean TPV FC,[23],2.3
same,median TPV FC,[23],1.5
same,mean TPV FC,[24],2.5
same,median TPV FC,[24],2.0
same,mean TPV FC,[25],2.6
same,median TPV FC,[25],2.0
same,mean TPV FC,[26],3.1
same,median TPV FC,[26],2.2
same,mean TPV FC,[27],3.5
same,median TPV FC,[27],2.4
same,mean TPV FC,[28],4.0
same,median TPV FC,[28],2.8
same,mean TPV FC,[29],4.4
same,median TPV FC,[29],2.8
same,mean TPV FC,[30],5.1
same,median TPV FC,[30],2.4
same,mean TPV FC,[31],5.2
same,median TPV FC,[31],3.2
same,mean TPV FC,[32],7.2
same,median TPV FC,[32],4.9
same,mean TPV FC,[33],8.6
same,median TPV FC,[33],4.5
same,mean TPV FC,[34],10.0
same,median TPV FC,[34],6.3
same,mean TPV FC,[35],12.6
same,median TPV FC,[35],7.4
same,mean TPV FC,[36],1.1
same,median TPV FC,[36],0.9
same,mean TPV FC,[37],1.1
same,median TPV FC,[37],0.9
same,mean TPV FC,[38],19.7
same,median TPV FC,[38],13.4
same,mean TPV FC,[39],20.1
same,median TPV FC,[39],12.5
same,mean TPV FC,[40],0.8
same,median TPV FC,[40],0.7
same,mean TPV FC,[41],1.1
same,median TPV FC,[41],0.9
same,mean TPV FC,[42],1.7
same,median TPV FC,[42],1.2
same,mean TPV FC,[43],3.4
same,median TPV FC,[43],1.8
same,mean TPV FC,[44],6.4
same,median TPV FC,[44],3.2
same,mean TPV FC,[45],10.7
same,median TPV FC,[45],5.7
same,mean TPV FC,[46],18
same,median TPV FC,[46],11.7
same,mean TPV FC,[47],24
same,median TPV FC,[47],19
same,mean TPV FC,[48],31
same,median TPV FC,[48],33
same,mean TPV FC,[49],41
same,median TPV FC,[49],41
same,samples with TPV FC greater than 2-fold,[50],44%
same,samples with TPV FC greater than 4-fold,[50],19%
